Experimental data as given in patent publication US10716788B2, “Methods for treating MS using pyrimidine and pyridine compounds with BTK inhibitory activity” (Merck Patent GmbH, priority 2015, dated 2020).

Experiments:
[1] = tested on: PLP139-151 induced EAE in female SJL mice; test: PLP139-151 induced EAE in SJL mice (relapsing remitting mouse model of MS); format: in vivo; conditions: for relapse activity / relapses: FIG. 2 / FIG. 10
RA models = conditions: 3 mg/kg PO; cited from earlier work
[2] = prophylactic treatment from Day 0 post-induction, 0.3, 1.0, 3 mg/kg PO QD, FIG. 1 / FIG. 9
[3] = prophylactic treatment from Day 0 post-induction, 0.3, 1.0, 3 mg/kg PO QD
[4] = therapeutic dosing from Day 9 post-induction, 1.0, 3, 10 mg/kg PO QD, FIG. 15

Row | SMILES | disease onset ([1]; prophylactic treatment from Day 0 post-induction, 0.3, 1.0, 3 mg/kg PO QD, FIG. 1) | disease severity (clinical score) [1, 2] | relapse activity / relapses [1, 3] | disease severity (clinical score) ([1]; therapeutic treatment, start at remission, 1, 3, 10 mg/kg PO QD, FIG. 3) | relapse activity ([1]; therapeutic treatment, start at remission, 1, 3, 10 mg/kg PO QD, FIG. 4) | number of relapses ([1]; dosing from Day 7 post-induction (before onset of EAE), 1.0 and 10 mg/kg PO QD, FIG. 21) | incidence of disease ([1]; prophylactic treatment from Day 0 post-induction, 0.3, 1.0, 3 mg/kg PO QD, FIG. 10) | disease severity (clinical score) ([1]; semi-therapeutic dosing from Day 7 post-induction (before onset of EAE), 1.0 and 10 mg/kg PO QD, FIG. 20) | disease severity (clinical score) ([1]; therapeutic dosing from Day 9 post-induction, 1.0, 3, 10 mg/kg PO QD, FIG. 14) | relapses [1, 4] | time to first relapse [1, 4] | disease severity (clinical score) ([1]; therapeutic dosing from Day 17 post-induction, 1.0 and 10 mg/kg PO QD, FIG. 18) | number of relapses ([1]; therapeutic dosing from Day 17 post-induction, 1.0 and 10 mg/kg PO QD, FIG. 19) | efficacy on RA models (RA models)
1 | C=CC(=O)N1CCC(CNc2ncnc(N)c2-c2ccc(Oc3ccccc3)cc2)CC1 [Compound (1), 1-(4-(((6-amino-5-(4-phenoxyphenyl)pyrimidin-4-yl)amino)methyl)piperidin-1-yl)prop-2-en-1-one] | delayed onset | reduced disease severity | reduced relapse activity | reduced disease severity | reduced relapse activity | – | – | – | – | – | – | – | – | –
2 | C=CC(=O)N1CCC(F)(CNc2ncnc(N)c2-c2ccc(Oc3ccccc3)cc2)CC1 [Compound (2), 1-(4-(((6-amino-5-(4-phenoxyphenyl)pyrimidin-4-yl)amino)methyl)-4-fluoropiperidin-1-yl)prop-2-en-1-one] | – | significantly decreases disease severity | decreased | – | – | reduced the number of relapses | decreased incidence of disease | reduced disease severity | reduced disease severity | decreased relapses | prolonged time to first relapse | reduced disease severity | reduced the number of relapses | efficacious
